Reference: patent publication US11351138B2, “Composition for use in the treatment of epilepsy” (VITAFLO INTERNATIONAL LTD, priority 2017, dated 2022)
Entries after “also recorded” stand apart in the source; their conditions may differ.

What was measured:
[1] = system: SH-SY5Y cells; test: CPT1 inhibition assay (etomoxir), oxidation rates in SH-SY5Y cells; type: cell-based; settings: for Oxidation rate +Etomoxir / Oxidation rate −Etomoxir: 250 μM substrate, mean±SEM; for Oxidation rate +Etomoxir: 50 μM etomoxir; for Oxidation rate −Etomoxir: without etomoxir
Description: C16:BSA complex (5:1 molar ratio fatty acid:BSA). […] Both solutions were aliquoted and stored at −20° C. until further use.
A stock solution of 50 mM etomoxir was prepared in sterile cell culture grade water and stored in aliquots at −20° C. On day 5 of culture, growth medium was replaced with 2 ml DMEM formula containing 3 mM D-glucose and 10% FBS. Cells were incubated with or without the presence of 50 μM etomoxir, for 20 h at 37° C. and 5% CO2. […] C8 or [U-^13C] C16:BSA, with 50 μM etomoxir also added to previously exposed cells. Wells were then sealed with heavy mineral oil, with cells incubated and media sampled as previously described.
Samples were thawed at room temperature and 100 μl 1M hydrochloric acid was injected through the septum into each vial to release CO2 from the media. Vials were centrifuged for 30 seconds at 500×g. Samples were then analysed on a GasBench II coupled to a Thermo Delta-XP isotope-ratio mass spectrometer.

[2] = molecular target: T1, GluA2/3 AMPA receptors (Homo sapiens, UniProt P42262+P42263); test: AMPA receptor (GluA2/3) currents in Xenopus oocytes, two-electrode voltage clamp; type: cell-based; settings: GluA2/3 in oocytes, 100 uM glutamate, total medium chain fatty acid content 1 mM
T1 construct: expressed in transfected cells; host or cells: Xenopus laevis oocytes injected with in vitro transcribed cRNA (GluA2 and GluA3, nominal 1:1)
T1 sequence (P42262 25-883 isoform P42262-2 limits assumed): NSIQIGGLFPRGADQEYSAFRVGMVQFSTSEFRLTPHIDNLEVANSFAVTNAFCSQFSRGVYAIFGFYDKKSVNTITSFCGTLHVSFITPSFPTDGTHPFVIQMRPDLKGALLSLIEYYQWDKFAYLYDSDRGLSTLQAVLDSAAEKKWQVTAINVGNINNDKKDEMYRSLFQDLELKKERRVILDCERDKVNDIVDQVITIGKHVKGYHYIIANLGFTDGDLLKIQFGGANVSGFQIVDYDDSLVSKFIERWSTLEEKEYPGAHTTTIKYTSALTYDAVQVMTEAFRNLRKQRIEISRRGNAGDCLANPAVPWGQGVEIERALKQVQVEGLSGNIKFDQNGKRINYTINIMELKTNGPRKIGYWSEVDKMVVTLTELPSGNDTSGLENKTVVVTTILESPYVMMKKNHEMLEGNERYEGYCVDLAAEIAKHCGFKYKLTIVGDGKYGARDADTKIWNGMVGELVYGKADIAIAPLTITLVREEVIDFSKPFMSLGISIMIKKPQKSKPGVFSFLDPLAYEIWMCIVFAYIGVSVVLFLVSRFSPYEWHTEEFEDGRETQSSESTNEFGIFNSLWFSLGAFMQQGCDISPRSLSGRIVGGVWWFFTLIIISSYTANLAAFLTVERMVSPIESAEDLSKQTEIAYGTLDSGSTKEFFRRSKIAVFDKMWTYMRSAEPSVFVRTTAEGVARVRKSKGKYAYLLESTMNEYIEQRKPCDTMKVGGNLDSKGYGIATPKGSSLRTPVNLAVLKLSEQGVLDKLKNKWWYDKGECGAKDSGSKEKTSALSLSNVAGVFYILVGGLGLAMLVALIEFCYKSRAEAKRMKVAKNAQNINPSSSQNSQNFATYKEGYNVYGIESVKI
T1 sequence (P42263 29-894 isoform P42263-2 limits assumed): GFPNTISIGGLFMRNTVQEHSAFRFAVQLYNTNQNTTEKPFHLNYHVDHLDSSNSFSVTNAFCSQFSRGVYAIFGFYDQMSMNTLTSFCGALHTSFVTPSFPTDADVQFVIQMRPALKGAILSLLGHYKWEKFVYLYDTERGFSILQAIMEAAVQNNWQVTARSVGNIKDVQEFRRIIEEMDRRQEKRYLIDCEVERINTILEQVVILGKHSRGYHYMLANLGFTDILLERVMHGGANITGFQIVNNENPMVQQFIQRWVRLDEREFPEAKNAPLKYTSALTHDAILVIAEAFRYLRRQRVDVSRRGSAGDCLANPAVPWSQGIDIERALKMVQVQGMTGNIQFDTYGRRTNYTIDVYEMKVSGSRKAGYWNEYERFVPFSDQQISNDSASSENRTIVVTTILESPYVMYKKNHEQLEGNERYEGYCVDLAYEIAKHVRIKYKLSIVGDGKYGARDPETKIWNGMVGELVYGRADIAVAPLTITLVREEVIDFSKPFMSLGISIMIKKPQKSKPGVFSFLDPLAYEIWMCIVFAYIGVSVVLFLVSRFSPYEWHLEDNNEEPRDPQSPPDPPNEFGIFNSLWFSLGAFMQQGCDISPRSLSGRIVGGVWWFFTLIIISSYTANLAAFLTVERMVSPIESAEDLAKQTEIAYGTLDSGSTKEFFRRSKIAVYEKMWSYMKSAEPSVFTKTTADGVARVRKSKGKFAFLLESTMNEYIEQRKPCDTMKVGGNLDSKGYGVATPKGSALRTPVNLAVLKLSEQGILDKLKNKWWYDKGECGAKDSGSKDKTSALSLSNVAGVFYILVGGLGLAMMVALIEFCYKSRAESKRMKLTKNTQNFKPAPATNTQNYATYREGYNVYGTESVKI
Description: The AMPA receptor (flip isoform) cDNAs inserted in a SP6 polymerase expression vector (pSP6T) were a gift from Prof Ralf Schoepfer (NPP, UCL). RNA was transcribed in vitro from Miu I linearised transcripts using the SP6 Promega RiboMax RNA synthesis kit (Madison, Wis.) according to manufacturers protocols except for the addition of 0.75 mM capping nucleotide m7G(5′)ppp(5′)G (Promega, Madison, Wis.) and 1.6 mM GTP. cRNA concentrations and integrity were estimated by the intensity of fluorescence bands in RNA denaturating gels. AMPA receptor cRNAs were mixed in a nominal 1:1 ratio and approximately 5 ng was injected per oocyte.
Xenopus laevis oocytes were purchased from the European Xenopus Resource Centre, University of Portsmouth. Stage V to VI oocytes were mechanically dissected and then subjected to gentle shaking for approximately 30-50 min at room temperature with modified Barth's solution (in mM): NaCl 88, KCl 1, NaHCO32.4, MgCb 0.82, CaCl2) 0.77, Tris-Cl 15, adjusted to pH 7.4 with NaOH (Sigma-Aldrich, UK), supplemented with 50 IU/ml penicillin and 50 μg/ml streptomycin (Invitrogen, UK) and 50 μg/ml tetracycline (Sigma-Aldrich, UK) and 1% collagenase (type 1A). […]

[3] = molecular target: T1, GluA2/3 AMPA receptors; settings: Chang et al., Brain 2016; cited from earlier work
[4] = clinically relevant concentrations, in vitro and in vivo; cited from earlier work
[5] = system: SH-SY5Y cells; type: cell-based; settings: human, 6 h, 250 μM
Description: SH-SY5Y cells were utilised between passages 20-24 for all experimental procedures. Cells were cultured in 1:1 Dulbecco's Modified Eagle's Medium (DMEM)/F12 media, containing 17.5 mM glucose and supplemented with 100 ml/L heat-inactivated foetal bovine serum (FBS) and 10 ml/L 200 mM L-glutamine. All cells were maintained in a humidified atmosphere at 37° C. and 5% CO2. Cells were sub-cultured by washing with 10 ml/flask Mg^2+1c a ^2+-free Dulbecco's phosphate-buffered saline (DPBS), lifted with 2 ml 0.25% trypsin-EDTA and suspended in 8 ml culture medium to inactivate the trypsin. The cell suspension was transferred to a falcon tube and centrifuged for 4 minutes at 500×g. The supernatant was removed and cells suspended in a known volume of fresh culture medium. Cells were counted using the Trypan Blue exclusion test for viability. A known volume of the cell suspension was mixed 1:1 with 0.4% Trypan Blue solution and counted with a Bio-Rad TC20™ Automated Cell Counter (Hemel Hempstead, UK). […]
Samples were thawed at room temperature and 100 μl 1M hydrochloric acid was injected through the septum into each vial to release CO2 from the media. […] Samples were then analysed on a GasBench II coupled to a Thermo Delta-XP isotope-ratio mass spectrometer. […]

[6] = animal models; cited from earlier work
[7] = system: SH-SY5Y cells; test: C10 and C8 co-incubation, C10 oxidation in SH-SY5Y cells; type: cell-based; settings: 250 μM [1-13C]C10 plus 62.5 μM unlabelled C8
Description: The effects of co-incubating C10 and C8 on C10 oxidation in SH-SY5Y cells were also explored. Additional stock solutions of 25 mM C8 and 100 mM [1-^13C]C10 were prepared in DMSO, sterile-filtered and stored in aliquots at −20° C. Cells were cultured and incubated for 20 h in 10% FBS-supplemented DMEM media containing 3 mM D-glucose, as previously described. Media was then removed and cells washed. Media was then replaced with 3 ml DMEM containing either 3 mM [U-^13C]glucose and vehicle control DMSO, or 3 mM unlabelled D-glucose. In each D-glucose-supplemented well, cells were treated with either a final concentration of 250 μM [1-^13C] C10, or 250 μM [1-^13C]C10 plus 62.5 μM C8, at a fixed total volume. Wells were then sealed with heavy mineral oil, cells incubated and media sampled as previously outlined.
Samples were thawed at room temperature and 100 μl 1M hydrochloric acid was injected through the septum into each vial to release CO2 from the media. Vials were centrifuged for 30 seconds at 500×g. Samples were then analysed on a GasBench II coupled to a Thermo Delta-XP isotope-ratio mass spectrometer. Ten repeat injections were carried out per sample, with d^13C/^12C ratios measured against Vienna Pee Dee Belemnite (VPDB) using a calibrated CO2 reference gas. ^13CO2/^12CO2 ratios were converted to mole percent excess using absolute molar ratio of ^13C to ^12C (0.0111796) in VPDB. […]

[8] = cited from earlier work
[9] = system: SH-SY5Y cells; test: Cell viability, Trypan Blue exclusion test; type: cell-based; settings: 50 μM etomoxir, 20 h + 6 h; data not shown
Description: Cells were incubated for 20 h at 37° C. and 5% CO2 with 50 μM etomoxir in DMEM media supplemented with 10% FBS, and then a further 6 h at 37° C. with 50 μM etomoxir in DMEM media without FBS. Cells were then lifted from wells with 1 ml 0.25% trypsin-EDTA, suspended in 4 ml culture medium and centrifuged for 4 minutes at 500×g. Supernatant was removed and cells suspended in 1 ml of fresh culture medium. Viability of cells was then tested using the Trypan Blue exclusion test.

Structure (SMILES)	Oxidation rate +Etomoxir [1] [nmol/h]	Oxidation rate −Etomoxir [1] [nmol/h]	effect on AMPA receptors / AMPA receptor currents [3]	anti-seizure effects [4]	concentration in peripheral blood (average) [8]	concentration in peripheral blood (range) [8] [µM]	reduction of oxidation in the presence of etomoxir ([1]; human, 6 h, 250 μM) [%]	further results
CCCCCCC[13C](=O)O [[1-^13C]C8, [1^13C]octanoic acid]	0.75 ± 0.06	1.14 ± 0.11						
[13CH3][13CH2][13CH2][13CH2][13CH2][13CH2][13CH2][13CH2][13CH2][13CH2][13CH2][13CH2][13CH2][13CH2][13CH2][13C](=O)O [[U-^13C]C16, [U-^13C]palmitic acid, reference compound]	0.002 ± 0.003	0.22 ± 0.05						reduction of oxidation in the presence of etomoxir ([1]; 50 μM etomoxir (CPT1 inhibition)): 99%
CCCCCCCCCC(=O)O [decanoic acid, Decanoic acid]			inhibits AMPA receptors	acute antiseizure effects; also recorded: has anti-seizure effects	157 µM	87 to 552	95	inhibition of AMPA receptor currents by decanoic acid:octanoic acid ratios [2]: no increase in AMPA receptor inhibition; C10 oxidation lower than that of C8 by [5]: approximately 80%; ratio in blood plasma to brain [6]: around 0.7; impairment of oxidation rate of C10 by C8 addition [7]: 29%
CCOC(=O)[C@@]1(CCCCCCOc2ccc(Cl)cc2)CO1 [etomoxir]								effect on viability of SH-SY5Y cells [9]: no effect on viability
CCCCCCCC(=O)O [octanoic acid, Octanoic acid]			no effect on AMPA receptor currents	not	around 306 μM	104 to 859	34	
